Where “and” joins values, the source holds several entries; their conditions need not be identical. Identical values can stand only once.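 The compound was tested at five concentrations on cells cultured in 96-well plates, with a 48-hour exposure period. At the GI50, growth is halved. TGI is the concentration that stops growth completely.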
Assays:
Assay in all cases: NCI tumour cell line growth inhibition, 48 h
[1] = test system: HOP-92 NSCLC
[2] = test system: MOLT-4 leukemia
[3] = test system: SF-295 CNS
[4] = test system: SF-539 CNS
[5] = test system: UO-31 renal
[6] = test system: HL-60(TB) leukemia
[7] = test system: SK-MEL-5 melanoma
[8] = test system: SR leukemia
[9] = test system: HS 578T breast
[10] = test system: PC-3 prostate

Row | SMILES | TGI [1] [µM] | TGI [2] | TGI [3] [µM] | TGI [4] | TGI [5] [µM] | TGI [6] [µM] | TGI [7] [µM] | TGI [8] [µM] | TGI [9] [µM] | TGI [10] [µM] | GI50 [1] [µM] | GI50 [9] [µM] | GI50 [2] [µM] | GI50 [10] [µM] | GI50 [3] [µM] | GI50 [4] [µM] | GI50 [7] [µM] | GI50 [8] [µM] | GI50 [5] [µM] | GI50 [6] [µM]
1 | O=c1[nH]nc2ccccc2c1Cl | 12.3 | 36.8 µM | 46.9 | 29.9 µM | 28.2 | – | – | – | – | – | – | – | – | – | – | – | – | – | – | –
2 | O=c1c2cccc3cccc(c4oc5c6cccc7cccc(c(=O)c5c14)c76)c32 | 15.2 | 21.5 µM | > 31.6 | 31.5 µM | 23.1 | 20.7 | 22.2 | 29.9 | – | – | – | – | – | – | – | – | – | – | – | –
3 | N#C/C(=C1\NN=C(N)C(c2ccc(Cl)cc2)=C1O)c1ccc(Cl)cc1 | > 100 | > 100 µM | > 100 | > 100 µM | > 100 | > 100 | – | > 100 | – | – | – | – | – | – | – | – | – | – | – | –
4 | O=C1Nc2ccccc2C1Cc1ccc([N+](=O)[O-])cc1 (centres undefined) | – | > 100 µM | > 100 | – | > 100 | > 100 | > 100 | > 100 | > 100 | > 100 | – | – | – | – | – | – | – | – | – | –
5 | O=C(O)CCSCCCN1C(=O)c2ccccc2C1=O | > 100 | > 100 µM | > 100 | > 100 µM | > 100 | – | > 100 | > 100 | – | – | – | – | – | – | – | – | – | – | – | –
6 | Fc1cccc2cc3ccc4cccc5ccc(c12)c3c45 | – | > 100 µM | > 100 | > 100 µM | > 100 | > 100 | > 100 | – | – | – | – | – | – | – | – | – | – | – | – | –
7 | O=C(/C=C/c1ccc(Cl)c(Cl)c1)c1ccc(F)cc1 | 72.1 | 38 µM | 41.6 | 38.2 µM | > 100 | 33.6 | 41 | – | – | – | – | – | – | – | – | – | – | – | – | –
8 | COC(=O)C1C2C=CC(C2)C1(C(=O)OC)S(=O)CC12CCC(CC1O)C2(C)C (centres undefined) | > 100 | > 100 µM | > 100 | > 100 µM | > 100 | > 100 | > 100 | 63.1 | – | – | – | – | – | – | – | – | – | – | – | –
9 | CN(C)CCNC(=O)c1ccc(C(=O)NCCN(C)C)c2nc3ccccc3cc12 | 7.99 | 1.56 µM | 16.4 | 2.01 µM | 18 | 9.5 | 4.34 | 2.49 | – | – | – | – | – | – | – | – | – | – | – | –
10 | COc1ccc(C2=NN(C(=O)COc3ccc(Cl)cc3)C(O)(c3ccc(Cl)cc3)C2)cc1 (centres undefined) | > 100 | > 100 µM | > 100 | > 100 µM | > 100 | > 100 | – | – | – | – | – | – | – | – | – | – | – | – | – | –
11 | Nc1c(Br)c(=O)[nH]c(=O)n1COCCO | > 100 | > 100 µM | > 100 | > 100 µM | > 100 | > 100 | > 100 | > 100 | – | – | – | – | – | – | – | – | – | – | – | –
12 | O=C(CCCCCCSc1nc(-c2ccccc2)cc(-c2ccccc2)n1)NO | 4.95 | 3.3 µM | 5.78 | 10 µM | 3.85 | – | 3.48 | 3.87 | 14.5 | 13.4 | 1.75 | 1.56 | 0.42 | 2.24 | 2.18 | 2.43 | 1.46 | 0.322 | 1.09 | –
13 | O=C1OC(CC(=O)c2ccc(Cl)cc2Cl)C(Cl)=C1Cl (centres undefined) | 39.7 | 66.7 µM | > 100 | 44.9 µM | > 56.7 | > 75.6 | > 66.3 | 70.4 | – | – | – | – | – | – | – | – | – | – | – | –
14 | CC1=C(C(=O)Nc2cccc(Cl)c2)C(c2ccc([N+](=O)[O-])cc2)C(C(=O)Nc2cccc(Cl)c2)=C(C)N1 | 31.1 | 56.2 µM | 58.4 | > 100 µM | 65.4 | 47.4 | 33.8 | – | – | – | – | – | – | – | – | – | – | – | – | –
15 | Cc1nn(-c2ccccc2)c2c1CC(=O)Nc1ccccc1-2 | – | 9.19 µM and 1.99 µM | 3.06 | 7.8 µM and 0.855 µM | > 100 | – | 45.2 | – | – | – | – | – | 0.0843 | 0.279 | – | 0.173 | 0.0879 | – | 1.11 | 0.0203
16 | Cc1ccc(S(=O)(=O)NNC(=O)c2sc(-c3nc(C)c(C(=O)NNS(=O)(=O)c4ccc(C)cc4)s3)nc2C)cc1 | > 100 | > 100 µM | > 100 | > 100 µM | 99.7 | > 100 | > 100 | – | – | – | – | – | – | – | – | – | – | – | – | –
17 | CC1CC(c2cccc3c2OCO3)=Nc2ccccc2S1 (centres undefined) | > 100 | > 100 µM | > 100 | > 100 µM | > 100 | > 100 | > 100 | – | – | – | – | – | – | – | – | – | – | – | – | –
18 | COc1ccc(C(Cc2cc(OC)c(OC)c(OC)c2)C(=O)O)cc1 (centres undefined) | – | – | 84.8 | > 100 µM | > 100 | – | > 100 | – | – | – | – | – | – | – | – | – | – | – | – | –
19 | Cc1cc(C)c2c(c1)Nc1ccccc1P2c1ccccc1 (centres undefined) | 58.9 | > 100 µM | 56.3 | – | 57.8 | 59.6 | – | – | – | – | – | – | – | – | – | – | – | – | – | –
20 | NC(=NC1CCCCCCC1)c1ccc(N2CCN(c3ccc(C(N)=NC4CCCCCCC4)cc3)CC2)cc1 | 79.9 | > 100 µM | 6.09 | – | > 100 | > 100 | 7.66 | > 100 | – | 46.8 | 25.1 | – | 47.8 | 22.6 | 2.04 | – | 1.72 | 26.6 | 48.3 | 16
21 | CCN1CCN(CC(=O)Nc2nc3ccc(NCc4ccc(Cl)cc4)cc3s2)CC1 | 2.77 | 5.78 µM | – | 3.18 µM | 3.19 | 3.87 | 3.07 | 17 | 9.09 | – | 1.12 | 2.59 | 2.23 | – | – | 1.69 | 1.67 | 2.78 | 1.62 | 1.95
22 | O=C1CC(c2ccc3c(c2)OCO3)Nc2cc3c(cc21)OCO3 (centres undefined) | – | > 100 µM | 6.81 | 1.2 µM | > 100 | 0.637 | 1.94 | 12.4 | 93.6 | > 100 | – | 0.512 | 0.56 | 0.464 | 0.348 | 0.301 | 0.364 | 0.266 | 0.767 | 0.252
23 | C=C1CC2(C[C@@H](c3ccccc3)O[C@@H](c3ccccc3)C2)OC1=O (some centres undefined) | 9.81 | 5.61 µM | 26.8 | 4.94 µM | 18.4 | 2.84 | 8.83 | – | 9.44 | 14.5 | – | – | – | – | – | – | – | – | – | –
